Results published in patent US20110028566A1, “COMPOSITIONS AND PRODUCTS CONTAINING CYCLOALIPHATIC DIOL ANTIMICROBIAL AGENTS AND METHODS OF USING THE COMPOSITIONS AND PRODUCTS” (EASTMAN CHEMICAL COMPANY, priority 2009, published 2011).

Columns and labels:
Format in all cases: cell-based
[1] = test system: trivalent bacterial-fungal inocula; assay: 15-day biofouling control in B-100 biodiesel:Bushnell-Haas broth, visual turbidity; set-up: key: 0 = No Growth; 1 = Slight Growth; 2 = Moderate Growth; 3 = Heavy Growth; conditions: biocide 0 mg/L, 15 days, 22° C., trivalent inoculum 50 uL
Procedure: Antimicrobial efficacy data (Table 54 & Table 55) were obtained for 1,4-CHDM with and without biocide in protection of B-100 biodiesel from microbial growth derived via either biodiesel-acclimated bioslime or trivalent bacterial-fungal inocula after 15-day exposure at 22° C. This testing was via a visual turbidity methodology. Neither micro-liter plates nor automatic plate reader could be used in this experiment due to the inherent biphasic nature of the system. B-100 biodiesel:Bushnell-Haas broth was used, which is a minimal salts medium specially designed for evaluating growth of microorganisms on hydrocarbons. Samples were evaluated visually (i.e., the more the turbidity, the more the growth, the less the turbidity, the less the growth, and no turbidity means no growth).

[2] = test system: Corynebacterium xerosis ATCC #373; assay: Synergy testing in brain heart infusion media, 96-well plates; conditions: for % CHDM: relative to CHDM alone; for SI: synergy index
Procedure: MICs were determined using a high-throughput microplate method. Individual antimicrobial agents were added to TSB (pH 7.3) for bacterial testing or SDB (pH 5.6) for fungal testing at the highest concentration to be tested. A serial dilution series was prepared at a dilution ratio of 1:1.3333 such that a one log range was covered in nine dilutions. Two-hundred microliters of the diluted antimicrobial agents were dispensed into four wells each of a sterile, 96-well, flat-bottom microplate (Nalge Nunc International). Four additional wells of the highest concentration were dispensed to serve as uninoculated high-level controls. Eight additional wells containing only broth medium were also prepared, four to serve as negative controls and four as positive controls. Three wells of each antimicrobial agent dilution were inoculated with one of the test strains in Table 7. The final well of each antimicrobial agent dilution was left uninoculated to serve as a control (and means of compensating) for any absorbance/turbidity due to the test compounds.
The individual antimicrobial agents listed in Table 8 were tested in combination with CHDM. The MIC values determined in the individual antimicrobial agent testing described above were used to establish a target MIC. In each experiment, MIC values for the individual antimicrobial agents and CHDM were determined in order to eliminate any variability due to comparison of data from different dates. Testing was done over a range of four concentrations separated by a factor of 1.3333 as described above. The four concentrations were the target MIC plus one dilution level higher and two dilution levels lower than the target. Combinations of antimicrobial agents and CHDM were made at 50% of the target MIC values and the higher and lower individual levels. Additionally, 50% level series were also tested with the antimicrobial agent or CHDM at one dilution level lower than the target level. The method of Kull et. al. (F. C. Kull et al., Applied Microbiology, 9, p 538-541 (1961)) was used to determine whether there was synergistic activity between CHDM and each antimicrobial agent for inhibition of each of the five microbes. MICs for the individually-tested CHDM and antimicrobial agent, as well as the concentration of CHDM and antimicrobial agent in the combination MIC were used to calculate a synergy index (SI) according to the equation: […]
where Qa and Qb are the minimum inhibitory concentrations for CHDM and a antimicrobial agent, respectively, when tested independently, and QA and QB are the concentrations of CHDM and a antimicrobial agent, respectively, in combination at an inhibitory concentration. Accordingly, synergy is defined as a SI less than one.
Experiments were also conducted using Corynebacterium xerosis, which is a bacterium known to cause body odor. […] The Corynebacterium xerosis bacterium used in this example was ATCC #373. The seed culture was grown in brain heart infusion medium. Assays were performed in brain heart infusion media in 96-well plates as described in Example 2. The brain heart infusion medium was at a pH of about 7.4. All growth was conducted at 37° C.

[3] = test system: challenge organisms (fungi, Gram negative and Gram positive bacteria); assay: Microbial challenge testing (Example 1), statements over all challenge organisms; conditions: Table 6 experiments; glycol 0.5 to 2.5 wt %, BIT 0.05 and 0.2 wt %; from grade codes
Procedure: The microorganisms used in challenge tests are given in Table 3, designated as either ATCC (American Type Culture Collection) or wild type. These wild type organisms were problematic organisms previously isolated from chemical products. In the description for each organism, the bacteria are indicated as either GN (Gram negative) or GP (Gram positive). […] Sample substrates were prepared in triplicate, except those substrates containing PE or CG which were prepared in duplicate. […] After mixing, all challenged substrates were incubated at 35° C.±2° C. for 14 days and then at ambient room temperature. […] The turbidity of the sample was determined and, if needed, the sample was diluted with phosphate buffer (pH 7.2) to produce readable plate counts (see “Plate Counts” below). […] For diluted samples, plates producing 22 to 220 colonies per plate were counted and the count was multiplied by the dilution factor. […] Possible synergies were determined by treating the grade code as an estimate of the log of the microbial count (log of cfu/mL). […] Synergies were determined in the same way as described above for Table 5. […] As mentioned previously, synergies (as indicated in Tables 5 and 6) were determined by treating the grade codes as the logarithm (log) of the organism counts (cfu/ml), then adding log reductions for the individual components and comparing to the log reduction for the mixture. […]

SMILES | Growth (visual turbidity rating) ([1]; 1,4-CHDM 0.1% (v/v)) | Growth (visual turbidity rating) ([1]; 1,4-CHDM 0.2% (v/v)) | Growth (visual turbidity rating) ([1]; 1,4-CHDM 0.3% (v/v)) | Growth (visual turbidity rating) ([1]; 1,4-CHDM 0.4% (v/v)) | Growth (visual turbidity rating) ([1]; 1,4-CHDM 0.5% (v/v)) | % CHDM ([2]; Day 2, CHDM with EHG) | % CHDM ([2]; Day 2, CHDM with TRI) | QA/a (CHDM) ([2]; Day 2, inhibitory concentration of CHDM alone or in combination with EHG, plate EX194-195-EHG-Syn1) | QA/a (CHDM) ([2]; Day 2, inhibitory concentration of CHDM alone or in combination with TRI, plate EX194-195-TRI-Syn1) | SI ([2]; Day 2, CHDM with EHG) | SI ([2]; Day 2, CHDM with TRI) | % CHDM ([2]; Day 3, CHDM with EHG) | % CHDM ([2]; Day 3, CHDM with TRI) | QA/a (CHDM) ([2]; Day 3, inhibitory concentration of CHDM alone or in combination with EHG, plate EX194-195-EHG-Syn1) | QA/a (CHDM) ([2]; Day 3, inhibitory concentration of CHDM alone or in combination with TRI, plate EX194-195-TRI-Syn1) | SI ([2]; Day 3, CHDM with EHG) | SI ([2]; Day 3, CHDM with TRI) | Synergism of cycloaliphatic diol with BIT (in words) [3]
OCC1CCC(CO)CC1 (stereo not shown) [1,4-CHDM, 1,4-cyclohexanedimethanol] | 3 | 3 | 3 | 3 | 3 | 100.0% | 100.0% | 2.110 | 2.110 | 1.00 | 1.00 | 100.0% | 100.0% | 2.110 | 2.110 | 1.00 | 1.00 | significant enhancement to the antimicrobial activity of BIT
CC1(C)C(O)C(C)(C)C1O (stereo not shown) [TMCD, 2,2,4,4-tetramethyl-1,3-cyclobutanediol] |  |  |  |  |  |  |  |  |  |  |  |  |  |  |  |  |  | significant enhancement to the antimicrobial activity of BIT
